Measured values published in publication PMC4770093, “The role of kinetic context in apparent biased agonism at GPCRs” (Nature Communications, 2016).
Several values for one entry are separate records, joined by “and”; a condition that tells them apart may be missing. Equal values may be shown once.

How the values were obtained:
D2LR [1] = molecular target: T1, D2LR (Homo sapiens, UniProt P14416); settings: 0.1 nM [3H]spiperone; 3 h at 37 °C; 100 μM GppNHp
Experimental: The cells were harvested in PBS containing 2 mM EDTA and centrifuged at 300 g for 3 min. The resulting pellet was resuspended in ice-cold assay buffer (20 mM HEPES, 100 mM NaCl, 6 mM MgCl2, 1 mM EGTA and 1 mM EDTA pH 7.4) and the centrifugation step was repeated. The intact cell pellet was then resuspended in assay buffer and homogenized using a Polytron homogenizer. After centrifugation (1,000 g, 10 min), the pellet was discarded and the supernatant was recentrifuged at 30,000 g for 1 h at 4 °C using a Sorvall Evolution RC ultracentrifuge (Thermo Scientific). The resulting pellet was resuspended in assay buffer and stored in 250 μl aliquots at −80 °C. Membrane protein concentration was determined using the method of Bradford.
All radioligand binding experiments were conducted at 37 °C in a 1-ml reaction volume in assay buffer (20 mM HEPES, 100 mM NaCl, 6 mM MgCl2, 1 mM EGTA and 1 mM EDTA pH 7.4) containing 100 μM GppNHp and 0.1% ascorbic acid. In all cases, nonspecific binding was determined in the presence of 10 μM haloperidol. […] Filter-bound radioactivity was measured by scintillation spectrometry after the addition of 3.5 ml of Ultima Gold (PerkinElmer) using a Tri-Carb 2900TR liquid scintillation counter (PerkinElmer).
where Y denotes the percentage-specific binding, Top and Bottom denote the maximal and minimal asymptotes, respectively, IC50 denotes the X-value when the response is midway between Bottom and Top, and nH denotes the Hill slope factor. IC50 values obtained from the inhibition curves were converted to Ki values using the Cheng and Prusoff equation[61].

D2LR [2] = molecular target: T1, D2LR; assay: β-Arrestin-2 recruitment (BRET); format: cell-based; set-up: expressed in transfected cells; settings: 5 minute timepoint
Experimental: β-Arrestin-2 recruitment. […] To assess β-arrestin-2 recruitment to the D2LR, the cells were transfected with 1 μg Rluc8-tagged D2LR, 4 μg YFP–β-arrestin-2 and 2 μg GRK2. […] The cells were incubated with Coelenterazine (Promega) at a final concentration of 5 μM for 5 min, followed by stimulation with the agonists for an additional 5 min before the BRET readings were captured.

D2LR [3] = molecular target: T1, D2LR; assay: GαoB G protein activation (BRET); format: cell-based; set-up: expressed in transfected cells; settings: for Emax Gao: relative to the maximal response of ropinirole;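 as to all read-outs here: Flp-In-CHO cells stably expressing D2LR, transiently transfected, agonist-stimulated in HBSS at 37 °C, net BRET read after coelenterazine, vehicle control subtracted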
Experimental: G protein activation. Flp-In-CHO cells stably expressing the D2LR were seeded at a density of 2,000,000 cells per 10-cm dish and were transfected the following day using polyethylenimine as the transfection reagent. […] Twenty-four hours after transfection, the cells were plated into 96-well CulturPlates (PerkinElmer) and grown overnight. The cells were equilibrated in Hank's balanced salt solution at 37 °C before starting the experiment. The cells were stimulated with the agonists for the indicated timeframes when the BRET readings were captured. Coelenterazine (Promega) was added at a final concentration of 5 μM at least 3 min before measurement. […] Net BRET was determined by subtraction of the vehicle control from the agonist-induced response.

D2LR [4] = molecular target: T1, D2LR; assay: Quantification of biased agonism between pathways (operational model, LogBias); format: cell-based; set-up: expressed in transfected cells; settings: 5 minute timepoint; dopamine as reference agonist
How it was run: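 Dose–response data for each pathway were fitted globally to the operational model, with Em and transducer slope shared between agonists, to derive KA and τ. Bias is ΔΔlog(τ/KA), the difference in Δlog(τ/KA) between two pathways. Parameters were estimated as logarithms and are given as mean±s.e.m.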

D2LR [5] = molecular target: T1, D2LR; assay: Inhibition of forskolin-induced cAMP production (BRET CAMYEL biosensor); settings: for Emax cAMP: relative to the maximal response of ropinirole; for Inhibition of cAMP production measured using a CAMYEL BRET biosensor, Net BRET: single experiments n = 1, 2, 3
Experimental: Flp-In-CHO cells stably expressing the D2LR were seeded at a density of 2,000,000 cells per 10-cm dish and were transfected the following day using polyethylenimine as the transfection reagent. The cells were transfected with 3 μg CAMYEL, to allow the detection of cAMP levels within the cells. Twenty-four hours after transfection, the cells were plated into 96-well CulturPlates (PerkinElmer) and grown overnight. The cells were equilibrated in Hank's balanced salt solution at 37 °C (or 25 °C when indicated) before starting the experiment. The cells were co-stimulated with the agonists and 10 μM forskolin for the indicated timeframes when the BRET readings were captured. Coelenterazine (Promega) was added at a final concentration of 5 μM at least 3 min before measurement. […] Net BRET was determined by subtraction of the vehicle control co-added with 10 μM forskolin.

[6] = 5 minute timepoint, Flp-In-CHO-D2LR
[7] = 5 minute timepoint, dopamine as reference agonist

T1 sequence (P14416 whole entry): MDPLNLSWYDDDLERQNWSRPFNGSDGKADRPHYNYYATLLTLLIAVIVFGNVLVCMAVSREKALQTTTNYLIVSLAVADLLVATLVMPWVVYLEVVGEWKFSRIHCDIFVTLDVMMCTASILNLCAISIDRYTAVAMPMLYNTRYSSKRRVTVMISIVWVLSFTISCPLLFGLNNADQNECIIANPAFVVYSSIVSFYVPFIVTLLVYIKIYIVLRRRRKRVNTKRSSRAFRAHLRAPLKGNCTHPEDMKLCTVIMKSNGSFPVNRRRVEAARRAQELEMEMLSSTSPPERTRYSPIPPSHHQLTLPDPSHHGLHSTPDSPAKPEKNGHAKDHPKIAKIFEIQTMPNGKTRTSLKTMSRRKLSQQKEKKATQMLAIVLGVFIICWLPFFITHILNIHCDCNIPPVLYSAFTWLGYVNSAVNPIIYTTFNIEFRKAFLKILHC

CN1CCN(c2cccc3[nH]c(=O)oc23)CC1 [Pardoprunox, pardoprunox]
pKi (affinity from competition binding experiments using [3H]spiperone) (D2LR [1]): 7.63 ± 0.06
Log(τ/KA) β-arrestin2 (D2LR [2]; ND = no agonist activity detected): 6.80 ± 0.29
ΔLog(τ/KA) β-arrestin2 (D2LR [2]; dopamine as reference agonist): 0.47 ± 0.32
pEC50 Gao (D2LR [3]; 2 min): 7.78
Emax Gao (D2LR [3]; 2 min): 82 ± 4.5
pEC50 Gao (D2LR [3]; 5 min): 7.77
Emax Gao (D2LR [3]; 5 min): 79 ± 4.3
Log(τ/KA) GαoB activation (D2LR [3]; [6]): 7.70 ± 0.10
ΔLog(τ/KA) GαoB activation (D2LR [3]; [7]): 0.45 ± 0.13
pEC50 Gao (D2LR [3]; 10 min): 8.00
Emax Gao (D2LR [3]; 10 min): 76 ± 3.2
pEC50 Gao (D2LR [3]; 15 min): 8.21
Emax Gao (D2LR [3]; 15 min): 81 ± 2.8
pEC50 Gao (D2LR [3]; 30 min): 8.70
Emax Gao (D2LR [3]; 30 min): 84 ± 3.1
pEC50 Gao (D2LR [3]; 45 min): 8.71
Emax Gao (D2LR [3]; 45 min): 85 ± 3.1
pEC50 Gao (D2LR [3]; 60 min): 8.64
Emax Gao (D2LR [3]; 60 min): 86 ± 2.7
pEC50 Gao (D2LR [3]; 75 min): 8.34
Emax Gao (D2LR [3]; 75 min): 80 ± 4.9
pEC50 Gao (D2LR [3]; 90 min): 8.58
Emax Gao (D2LR [3]; 90 min): 87 ± 2.5
change in potency over time in the GαoB activation assay (D2LR [3]; time points from 2 to 90 min): sixfold
LogBias CI – pERK1/2 (D2LR [4]): 0.24 ± 0.12
LogBias Gαi1 – CI (D2LR [4]): 0.19 ± 0.18
LogBias Gαi1 – GαoB (D2LR [4]): 0.48 ± 0.21
LogBias Gαi1 – cAMP (D2LR [4]): 0.35 ± 0.17
LogBias Gαi1 – pERK1/2 (D2LR [4]): 0.43 ± 0.19
LogBias GαoB – CI (D2LR [4]): -0.29 ± 0.15
LogBias GαoB – cAMP (D2LR [4]): -0.13 ± 0.15
LogBias GαoB – pERK1/2 (D2LR [4]): -0.05 ± 0.16
LogBias cAMP – CI (D2LR [4]): -0.16 ± 0.10
LogBias cAMP – pERK1/2 (D2LR [4]): 0.08 ± 0.12
LogBias β-arr2 – CI (D2LR [4]): -0.28 ± 0.33
LogBias β-arr2 – Gαi1 (D2LR [4]): -0.47 ± 0.36
LogBias β-arr2 – GαoB (D2LR [4]): 0.01 ± 0.34
LogBias β-arr2 – cAMP (D2LR [4]): -0.12 ± 0.33
LogBias β-arr2 – pERK1/2 (D2LR [4]): -0.04 ± 0.33
pEC50 cAMP (D2LR [5]; 2 min): 8.98
Emax cAMP (D2LR [5]; 2 min): 87 ± 1.9
pEC50 cAMP (D2LR [5]; 5 min): 8.69
Emax cAMP (D2LR [5]; 5 min): 87 ± 1.5
Log(τ/KA) cAMP (D2LR [5]; [6]): 8.64 ± 0.05
ΔLog(τ/KA) cAMP (D2LR [5]; [7]): 0.58 ± 0.07
pEC50 cAMP (D2LR [5]; 10 min): 8.39
Emax cAMP (D2LR [5]; 10 min): 86 ± 1.4
pEC50 cAMP (D2LR [5]; 15 min): 8.33
Emax cAMP (D2LR [5]; 15 min): 87 ± 1.6
pEC50 cAMP (D2LR [5]; 30 min): 8.46
Emax cAMP (D2LR [5]; 30 min): 85 ± 2.1
pEC50 cAMP (D2LR [5]; 45 min): 8.03
Emax cAMP (D2LR [5]; 45 min): 82 ± 1.4
pEC50 cAMP (D2LR [5]; 60 min): 7.82
Emax cAMP (D2LR [5]; 60 min): 74 ± 1.8
pEC50 cAMP (D2LR [5]; 75 min): 8.04
Emax cAMP (D2LR [5]; 75 min): 84 ± 2.2
pEC50 cAMP (D2LR [5]; 90 min): 7.83
Emax cAMP (D2LR [5]; 90 min): 81 ± 1.6
Inhibition of cAMP production measured using a CAMYEL BRET biosensor, Net BRET (D2LR [5]; time 2.21667 mins): 0.09312 and 0.1119 and 0.09462
Inhibition of cAMP production measured using a CAMYEL BRET biosensor, Net BRET (D2LR [5]; time 2.58333 mins): 0.09848 and 0.1094 and 0.0984
Inhibition of cAMP production measured using a CAMYEL BRET biosensor, Net BRET (D2LR [5]; time 2.95 mins): 0.1044 and 0.1291 and 0.0949
Inhibition of cAMP production measured using a CAMYEL BRET biosensor, Net BRET (D2LR [5]; time 3.31667 mins): 0.1072 and 0.1248 and 0.1125
Inhibition of cAMP production measured using a CAMYEL BRET biosensor, Net BRET (D2LR [5]; time 3.68333 mins): 0.1144 and 0.1213 and 0.1135
Inhibition of cAMP production measured using a CAMYEL BRET biosensor, Net BRET (D2LR [5]; time 4.05 mins): 0.1221 and 0.1382 and 0.1172
Inhibition of cAMP production measured using a CAMYEL BRET biosensor, Net BRET (D2LR [5]; time 4.41667 mins): 0.1176 and 0.1369 and 0.114
Inhibition of cAMP production measured using a CAMYEL BRET biosensor, Net BRET (D2LR [5]; time 4.78333 mins): 0.1323 and 0.136 and 0.1109
Inhibition of cAMP production measured using a CAMYEL BRET biosensor, Net BRET (D2LR [5]; time 5.15 mins): 0.1365 and 0.1389 and 0.1171
Inhibition of cAMP production measured using a CAMYEL BRET biosensor, Net BRET (D2LR [5]; time 5.51667 mins): 0.1301 and 0.1395 and 0.116
Inhibition of cAMP production measured using a CAMYEL BRET biosensor, Net BRET (D2LR [5]; time 5.88333 mins): 0.1412 and 0.1297 and 0.1213
Inhibition of cAMP production measured using a CAMYEL BRET biosensor, Net BRET (D2LR [5]; time 6.25 mins): 0.1339 and 0.1324 and 0.1196
Inhibition of cAMP production measured using a CAMYEL BRET biosensor, Net BRET (D2LR [5]; time 6.61667 mins): 0.1245 and 0.1374 and 0.113
Inhibition of cAMP production measured using a CAMYEL BRET biosensor, Net BRET (D2LR [5]; time 6.98333 mins): 0.1378 and 0.1302 and 0.1147
Inhibition of cAMP production measured using a CAMYEL BRET biosensor, Net BRET (D2LR [5]; time 7.35 mins): 0.1418 and 0.1291 and 0.1123
Inhibition of cAMP production measured using a CAMYEL BRET biosensor, Net BRET (D2LR [5]; time 7.71667 mins): 0.1394 and 0.1366 and 0.1233
Inhibition of cAMP production measured using a CAMYEL BRET biosensor, Net BRET (D2LR [5]; time 8.08333 mins): 0.1443 and 0.1378 and 0.1166
Inhibition of cAMP production measured using a CAMYEL BRET biosensor, Net BRET (D2LR [5]; time 8.45 mins): 0.1408 and 0.1371 and 0.1127
Inhibition of cAMP production measured using a CAMYEL BRET biosensor, Net BRET (D2LR [5]; time 8.81667 mins): 0.144 and 0.1435 and 0.1231
Inhibition of cAMP production measured using a CAMYEL BRET biosensor, Net BRET (D2LR [5]; time 9.18333 mins): 0.1482 and 0.1437 and 0.1124
Inhibition of cAMP production measured using a CAMYEL BRET biosensor, Net BRET (D2LR [5]; time 9.55 mins): 0.1472 and 0.1422 and 0.1225
Inhibition of cAMP production measured using a CAMYEL BRET biosensor, Net BRET (D2LR [5]; time 9.91667 mins): 0.1503 and 0.1391 and 0.1248
Inhibition of cAMP production measured using a CAMYEL BRET biosensor, Net BRET (D2LR [5]; time 10.2833 mins): 0.1418 and 0.1435 and 0.1207
Inhibition of cAMP production measured using a CAMYEL BRET biosensor, Net BRET (D2LR [5]; time 10.65 mins): 0.1434 and 0.1464 and 0.1244
Inhibition of cAMP production measured using a CAMYEL BRET biosensor, Net BRET (D2LR [5]; time 11.0167 mins): 0.1459 and 0.1412 and 0.1263
Inhibition of cAMP production measured using a CAMYEL BRET biosensor, Net BRET (D2LR [5]; time 11.3833 mins): 0.1508 and 0.1374 and 0.1263
Inhibition of cAMP production measured using a CAMYEL BRET biosensor, Net BRET (D2LR [5]; time 11.75 mins): 0.1476 and 0.1469 and 0.1207
Inhibition of cAMP production measured using a CAMYEL BRET biosensor, Net BRET (D2LR [5]; time 12.1167 mins): 0.1454 and 0.1457 and 0.1265
Inhibition of cAMP production measured using a CAMYEL BRET biosensor, Net BRET (D2LR [5]; time 12.4833 mins): 0.14 and 0.1421 and 0.1315
Inhibition of cAMP production measured using a CAMYEL BRET biosensor, Net BRET (D2LR [5]; time 12.85 mins): 0.1413 and 0.1515 and 0.1219
Inhibition of cAMP production measured using a CAMYEL BRET biosensor, Net BRET (D2LR [5]; time 13.2167 mins): 0.1418 and 0.1452 and 0.1337
Inhibition of cAMP production measured using a CAMYEL BRET biosensor, Net BRET (D2LR [5]; time 13.5833 mins): 0.1514 and 0.1571 and 0.1315
Inhibition of cAMP production measured using a CAMYEL BRET biosensor, Net BRET (D2LR [5]; time 13.95 mins): 0.1501 and 0.1517 and 0.1357
Inhibition of cAMP production measured using a CAMYEL BRET biosensor, Net BRET (D2LR [5]; time 14.3167 mins): 0.1522
